Test results from PMC10527387, “The Potential Mechanisms behind Loperamide-Induced Cardiac Arrhythmias Associated with Human Abuse and Extreme Overdose” (Biomolecules, 2023).

Columns and labels:
Nav1.5 (INa) = target: T1, Nav1.5 (INa) (Homo sapiens, UniProt Q14524); assay: cell-based
T1 construct: gene SCN5A

Cav1.2 (ICa, ICaL) = target: T2, Cav1.2 (ICa, ICaL) (Homo sapiens, UniProt Q13936); assay: cell-based
T2 construct: gene CACNA1C
T2 sequence (Q13936 whole entry): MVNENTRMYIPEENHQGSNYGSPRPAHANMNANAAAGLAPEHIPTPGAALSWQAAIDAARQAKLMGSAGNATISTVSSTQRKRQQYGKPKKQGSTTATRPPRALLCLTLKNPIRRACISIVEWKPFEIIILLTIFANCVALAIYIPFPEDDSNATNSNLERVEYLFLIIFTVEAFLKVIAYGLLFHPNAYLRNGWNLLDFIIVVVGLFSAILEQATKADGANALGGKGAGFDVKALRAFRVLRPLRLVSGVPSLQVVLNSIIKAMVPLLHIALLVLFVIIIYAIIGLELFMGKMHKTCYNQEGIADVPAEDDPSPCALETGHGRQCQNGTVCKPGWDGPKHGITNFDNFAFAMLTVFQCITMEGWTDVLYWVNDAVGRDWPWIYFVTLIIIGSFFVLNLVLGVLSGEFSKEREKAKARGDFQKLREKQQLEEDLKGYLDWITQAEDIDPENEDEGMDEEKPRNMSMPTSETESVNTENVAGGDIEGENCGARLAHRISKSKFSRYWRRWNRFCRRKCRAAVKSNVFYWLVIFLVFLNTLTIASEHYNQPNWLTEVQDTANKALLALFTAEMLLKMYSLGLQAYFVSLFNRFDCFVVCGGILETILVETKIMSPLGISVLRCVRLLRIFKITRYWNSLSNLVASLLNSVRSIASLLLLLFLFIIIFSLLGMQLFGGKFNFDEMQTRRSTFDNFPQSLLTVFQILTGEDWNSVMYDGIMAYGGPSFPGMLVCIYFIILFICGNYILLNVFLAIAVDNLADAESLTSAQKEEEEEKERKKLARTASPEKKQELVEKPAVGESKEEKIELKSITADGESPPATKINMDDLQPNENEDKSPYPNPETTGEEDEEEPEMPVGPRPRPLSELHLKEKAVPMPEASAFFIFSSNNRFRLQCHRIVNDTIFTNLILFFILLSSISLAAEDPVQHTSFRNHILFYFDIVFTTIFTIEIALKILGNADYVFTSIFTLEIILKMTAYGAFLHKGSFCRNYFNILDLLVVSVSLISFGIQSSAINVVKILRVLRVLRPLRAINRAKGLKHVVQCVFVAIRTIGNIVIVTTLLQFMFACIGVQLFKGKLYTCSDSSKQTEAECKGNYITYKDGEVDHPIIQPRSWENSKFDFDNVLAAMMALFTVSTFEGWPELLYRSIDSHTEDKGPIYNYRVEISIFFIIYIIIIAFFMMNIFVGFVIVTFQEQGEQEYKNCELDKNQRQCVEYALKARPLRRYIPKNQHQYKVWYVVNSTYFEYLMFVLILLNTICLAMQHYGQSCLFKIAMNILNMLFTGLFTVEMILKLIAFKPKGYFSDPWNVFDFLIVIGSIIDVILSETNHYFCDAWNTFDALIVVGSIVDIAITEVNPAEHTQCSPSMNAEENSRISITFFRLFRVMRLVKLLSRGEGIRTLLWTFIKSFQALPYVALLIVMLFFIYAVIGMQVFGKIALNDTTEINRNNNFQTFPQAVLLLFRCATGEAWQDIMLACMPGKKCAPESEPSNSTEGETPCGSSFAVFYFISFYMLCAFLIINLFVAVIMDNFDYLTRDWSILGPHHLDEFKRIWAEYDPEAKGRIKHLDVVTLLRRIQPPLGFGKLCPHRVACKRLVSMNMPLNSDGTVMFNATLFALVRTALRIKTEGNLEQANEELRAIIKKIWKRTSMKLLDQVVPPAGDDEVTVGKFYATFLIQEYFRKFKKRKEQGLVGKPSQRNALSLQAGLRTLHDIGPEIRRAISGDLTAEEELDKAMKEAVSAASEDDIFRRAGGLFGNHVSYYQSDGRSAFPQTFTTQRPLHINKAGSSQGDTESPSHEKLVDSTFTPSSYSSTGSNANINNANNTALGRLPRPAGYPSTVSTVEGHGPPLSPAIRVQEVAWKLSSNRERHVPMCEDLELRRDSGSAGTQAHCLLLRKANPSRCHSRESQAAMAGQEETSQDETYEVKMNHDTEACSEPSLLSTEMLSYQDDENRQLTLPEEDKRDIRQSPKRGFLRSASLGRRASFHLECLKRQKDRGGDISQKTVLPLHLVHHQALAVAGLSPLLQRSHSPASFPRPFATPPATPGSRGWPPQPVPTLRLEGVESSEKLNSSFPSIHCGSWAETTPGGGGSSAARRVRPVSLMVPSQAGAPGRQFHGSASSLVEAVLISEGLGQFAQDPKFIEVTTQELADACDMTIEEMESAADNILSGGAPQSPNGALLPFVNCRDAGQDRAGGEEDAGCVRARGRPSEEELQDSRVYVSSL

T1 sequence (Q14524 whole entry): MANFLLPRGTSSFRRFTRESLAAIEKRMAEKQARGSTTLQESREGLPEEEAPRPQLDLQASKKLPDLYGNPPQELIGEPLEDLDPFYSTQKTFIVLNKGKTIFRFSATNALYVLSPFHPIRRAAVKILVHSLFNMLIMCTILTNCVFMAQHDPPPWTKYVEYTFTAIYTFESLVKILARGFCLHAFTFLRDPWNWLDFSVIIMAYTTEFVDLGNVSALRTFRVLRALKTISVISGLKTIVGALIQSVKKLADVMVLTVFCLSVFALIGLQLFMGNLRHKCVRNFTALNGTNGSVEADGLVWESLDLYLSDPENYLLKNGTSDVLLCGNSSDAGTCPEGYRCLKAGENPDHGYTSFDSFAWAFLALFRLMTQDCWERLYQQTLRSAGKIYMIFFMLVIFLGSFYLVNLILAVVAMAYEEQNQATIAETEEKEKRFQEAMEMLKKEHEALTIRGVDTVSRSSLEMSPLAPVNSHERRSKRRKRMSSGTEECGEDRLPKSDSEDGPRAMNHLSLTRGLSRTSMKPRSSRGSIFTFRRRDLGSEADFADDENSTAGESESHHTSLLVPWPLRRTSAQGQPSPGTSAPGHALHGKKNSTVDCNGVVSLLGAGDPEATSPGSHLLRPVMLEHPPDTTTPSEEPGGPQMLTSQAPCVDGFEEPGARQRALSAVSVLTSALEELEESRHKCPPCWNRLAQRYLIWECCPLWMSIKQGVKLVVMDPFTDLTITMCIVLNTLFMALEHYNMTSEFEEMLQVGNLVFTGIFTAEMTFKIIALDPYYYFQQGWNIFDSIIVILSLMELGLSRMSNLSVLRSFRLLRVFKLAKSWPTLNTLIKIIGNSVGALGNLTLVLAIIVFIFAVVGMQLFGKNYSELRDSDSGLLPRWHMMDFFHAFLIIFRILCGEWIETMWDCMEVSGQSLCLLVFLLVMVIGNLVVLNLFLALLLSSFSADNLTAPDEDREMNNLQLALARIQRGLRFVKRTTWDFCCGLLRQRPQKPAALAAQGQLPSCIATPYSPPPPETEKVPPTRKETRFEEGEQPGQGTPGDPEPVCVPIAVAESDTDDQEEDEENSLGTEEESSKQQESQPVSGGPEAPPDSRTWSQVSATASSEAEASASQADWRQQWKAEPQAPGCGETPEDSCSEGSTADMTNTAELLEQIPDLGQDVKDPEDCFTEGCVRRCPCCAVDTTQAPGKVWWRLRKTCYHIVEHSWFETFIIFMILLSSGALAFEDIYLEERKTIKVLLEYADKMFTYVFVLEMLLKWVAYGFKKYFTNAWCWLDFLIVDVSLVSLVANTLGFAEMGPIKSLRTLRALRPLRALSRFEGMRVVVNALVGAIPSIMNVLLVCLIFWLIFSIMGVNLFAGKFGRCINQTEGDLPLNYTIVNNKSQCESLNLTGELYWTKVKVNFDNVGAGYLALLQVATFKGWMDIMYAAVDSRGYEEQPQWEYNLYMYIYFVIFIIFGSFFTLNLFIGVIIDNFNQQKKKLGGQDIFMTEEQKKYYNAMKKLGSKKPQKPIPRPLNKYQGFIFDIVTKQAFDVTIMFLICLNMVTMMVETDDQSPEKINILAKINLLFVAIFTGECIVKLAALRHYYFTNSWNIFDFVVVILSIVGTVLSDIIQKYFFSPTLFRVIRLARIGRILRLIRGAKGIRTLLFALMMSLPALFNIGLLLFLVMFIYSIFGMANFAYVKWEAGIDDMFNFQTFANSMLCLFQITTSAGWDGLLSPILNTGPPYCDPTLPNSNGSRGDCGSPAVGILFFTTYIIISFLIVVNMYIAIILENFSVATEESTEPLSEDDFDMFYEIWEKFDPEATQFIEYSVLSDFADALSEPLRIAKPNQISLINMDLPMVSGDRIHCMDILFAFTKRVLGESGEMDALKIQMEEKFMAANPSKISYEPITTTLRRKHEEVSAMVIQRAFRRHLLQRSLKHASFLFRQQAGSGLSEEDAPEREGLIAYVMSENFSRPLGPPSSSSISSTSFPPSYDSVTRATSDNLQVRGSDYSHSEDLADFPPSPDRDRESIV

## CN(C)C(=O)C(CCN1CCC(O)(c2ccc(Cl)cc2)CC1)(c1ccccc1)c1ccccc1 [Loperamide]
Nav1.5 (INa)
  IC50: 526 nM
Cav1.2 (ICa, ICaL)
  IC50: 4090 nM
